Source: ChEMBL document CHEMBL3046962, “Synthesis of new olefin chalcone derivatives as antitumor, antioxidant and antimicrobial agents” (Med Chem Res, 2012)

Key:
[1] = Cytotoxicity against Homo sapiens (human) Hep-3BPN7 at 100 ug after 72 hr by MTT assay; format: functional
[2] = Cytotoxicity against Homo sapiens (human) HL60-P58 at 100 ug after 72 hr by MTT assay; format: functional
[3] = test system: Proteus vulgaris; assay: Antimicrobial activity against Proteus vulgaris MTCC 1751 at 100 ug after 24 hr by agar disk diffusion method; format: functional; conditions: MTCC 1751, 24 h, read-out: DIZ
[4] = test system: Candida albicans; assay: Antimicrobial activity against Candida albicans MTCC 3017 at 100 ug after 48 hr by agar disk diffusion method; format: functional; conditions: MTCC 3017, 48 h, read-out: DIZ
[5] = Antioxidant activity assessed as hydroxyl radical scavenging activity at 100 ug after 5 min by UV-Visible spectrophotometry; format: functional
[6] = Antioxidant activity assessed as ferric reducing activity at 100 ug after 20 min by UV-Visible spectrophotometry; set-up: scale not given: the % may be the effect or the level left
[7] = test system: Radical scavenging activity; assay: Antioxidant activity assessed as DPPH radical scavenging activity at 100 ug after 20 min by UV-Visible spectrophotometry; format: functional
[8] = Cytotoxicity against Homo sapiens (human) HeLa-B75 at 100 ug after 72 hr by MTT assay; format: functional
[9] = test system: Escherichia coli; assay: Antimicrobial activity against Escherichia coli DH5[alpha] at 100 ug after 24 hr by agar disk diffusion method; format: functional; conditions: read-out: DIZ
[10] = Cytotoxicity against Homo sapiens (human) PN-5C-12 at 100 ug after 72 hr by MTT assay; conditions: in vitro
[11] = test system: Staphylococcus aureus; assay: Antimicrobial activity against Staphylococcus aureus MTCC 96 at 100 ug after 24 hr by agar disk diffusion method; format: functional; conditions: MTCC 96, 24 h, read-out: DIZ

| SMILES | Activity [1] [%] | Activity [2] [%] | zone of inhibition at 100 µg/disc [3] [mm] | zone of inhibition at 100 µg/disc [4] [mm] | Activity [5] [%] | Activity [6] [%] | Activity [7] [%] | Activity [8] [%] | zone of inhibition at 100 µg/disc [9] [mm] | Activity [10] [%] | zone of inhibition at 100 µg/disc [11] [mm] |
| --- | --- | --- | --- | --- | --- | --- | --- | --- | --- | --- | --- |
| COc1cc(OC)c(C2=CCN(C)CC2)c(OC)c1/C=C/C(=O)c1ccc(N)cc1 | 75.06 | 61.17 | 5 | 2.9 | 54.1 | 48.3 | 89.6 | 79.28 | 6.5 | 49.67 | 1.5 |
| COc1cc(OC)c(C2=CCN(C)CC2)c(OC)c1/C=C/C(=O)c1ccc(Br)cc1 | 78.93 | 62.68 | – | 0.5 | 44.4 | 50.3 | 23.3 | 84.84 | 2 | 66.4 | 0.5 |
| COc1cc(OC)c(C2=CCN(C)CC2)c(OC)c1/C=C/C(=O)c1ccc(F)c(F)c1 | 76.93 | 70.5 | 4 | 1.1 | 52.2 | 43.9 | 58.8 | 82.85 | 2 | 65.48 | 2.5 |
| COc1cc(OC)c(C2=CCN(C)CC2)c(OC)c1/C=C/C(=O)c1ccc(F)cc1 | 79.86 | 62.18 | 7.5 | 3.5 | 38.7 | 48.3 | 22.9 | 85.04 | 4.5 | 69.43 | 2 |
| COc1cc(OC)c(C(=O)/C=C/c2c(OC)cc(OC)c(C3=CCN(C)CC3)c2OC)c(OC)c1 | 70.53 | 65.04 | 3.5 | – | 46.6 | 58.8 | 56.1 | 78.73 | 3.5 | 59.81 | 3.5 |
| COc1ccc(OC)c(C(=O)/C=C/c2c(OC)cc(OC)c(C3=CCN(C)CC3)c2OC)c1 | 73.4 | 66.3 | 5 | – | 54.9 | 66.5 | 57.7 | 82.09 | 2.5 | 41.1 | 5 |
| COc1cc(OC)c(C2=CCN(C)CC2)c(OC)c1/C=C/C(=O)c1ccc(C)cc1 | 72.53 | 69.49 | 10.2 | 0.1 | 59.8 | 68.1 | 58.5 | 82.23 | 2.5 | 44.26 | 5 |
| COc1cc(OC)c(C2=CCN(C)CC2)c(OC)c1/C=C/C(=O)c1ccc[nH]1 | 80.13 | 66.55 | 3 | 1.5 | 63.1 | 61.2 | 68.7 | 77.77 | 6.25 | 57.57 | 1.1 |
| COc1cc(OC)c(C2=CCN(C)CC2)c(OC)c1/C=C/C(=O)c1ccc([N+](=O)[O-])cc1 | 80.13 | 65.88 | 4 | 2 | 51.5 | 46.3 | 25 | 83.67 | 2 | 70.09 | 5 |
| COc1cc(OC)c(C2=CCN(C)CC2)c(OC)c1/C=C/C(=O)c1cc(Cl)ccc1Cl | 70.8 | 65.63 | 6.5 | 1.5 | 48.5 | 62.4 | 55.4 | 79.97 | 1.5 | 60.47 | 1.5 |
| CN(Cc1cnc2nc(N)nc(N)c2n1)c1ccc(C(=O)N[C@@H](CCC(=O)O)C(=O)O)cc1 [METHOTREXATE] | 64.6 | 54.08 | – | – | – | – | – | 78.66 | – | 53.85 | – |
| COc1ccc(C(=O)/C=C/c2c(OC)cc(OC)c(C3=CCN(C)CC3)c2OC)cc1 | 72.33 | 56.97 | 7 | – | 57.9 | 67.7 | 55.6 | 80.86 | 3.5 | 46.11 | 2.5 |
| COc1cc(OC)c(C2=CCN(C)CC2)c(OC)c1/C=C/C(=O)c1ccc(Cl)c(Cl)c1 | 79.8 | 65.04 | 9.1 | 5.5 | 59.8 | 46.7 | 56.9 | 85.93 | 1.5 | 67.19 | 5 |
| COc1cc(OC)c(C2=CCN(C)CC2)c(OC)c1/C=C/C(=O)c1cccs1 | 79.8 | 54.28 | 6.5 | 1.5 | 36.5 | 59.6 | 22.7 | 84.91 | 1.1 | 67.19 | 2.5 |
| COc1cc(OC)c(C2=CCN(C)CC2)c(OC)c1/C=C/C(=O)c1ccc(Cl)cc1 | 77.4 | 65.04 | 3 | – | 16.9 | 41.9 | 20.4 | 83.74 | 3 | 67.98 | 2.5 |
| COc1ccc(C(=O)/C=C/c2c(OC)cc(OC)c(C3=CCN(C)CC3)c2OC)c(OC)c1 | 77 | 78.48 | 3.5 | – | 59 | 53.1 | 60.6 | 83.4 | 3.15 | 47.82 | 2.5 |
| COc1ccccc1C(=O)/C=C/c1c(OC)cc(OC)c(C2=CCN(C)CC2)c1OC | 71.33 | 68.4 | 3 | – | 59.8 | 60.8 | 60 | 81.13 | 3.5 | 46.77 | 2.5 |
| COc1cc(O)c(C(=O)/C=C/c2c(OC)cc(OC)c(C3=CCN(C)CC3)c2OC)c(OC)c1 | 71.4 | 64.2 | 9.5 | – | 51.1 | 69.3 | 57.3 | 79.69 | 2 | 44.13 | 1.5 |
| COc1ccc(C(=O)/C=C/c2c(OC)cc(OC)c(C3=CCN(C)CC3)c2OC)cc1OC | 79.46 | 62.77 | 5.5 | 1.5 | 35 | 50.7 | 22.3 | 84.84 | 2 | 65.21 | 0.5 |
| COc1cc(OC)c(C2=CCN(C)CC2)c(OC)c1/C=C/C(=O)c1cccc(N)c1 | 76.33 | 66.72 | 7 | 6.3 | 55.6 | 64.8 | 94.5 | 82.64 | 3.5 | 44.53 | 3.5 |
| COc1cc(OC)c(C2=CCN(C)CC2)c(OC)c1/C=C/C(=O)c1ccc(Cl)cc1Cl | 71.26 | 58.99 | 5.5 | 1.1 | 48.1 | 63.6 | 56.7 | 79.42 | 2.5 | 50.98 | 1.1 |
| COc1cc(OC)c(C2=CCN(C)CC2)c(OC)c1/C=C/C(=O)c1ccccc1 | 78.06 | 63.52 | 2.5 | 3.5 | 41.4 | 58.4 | 27.9 | 84.15 | 5.5 | 61.79 | 5 |
